This passage reports IC50 results from patent US11780845B2 (Relay Therapeutics, Inc., priority 2019, dated 2023).

For experiment [1], the target named is T1, FGFR2 (Homo sapiens (Human), UniProt P21802). Description: FGFR2 Biochemical Caliper Assay. How it is done: Compounds of the present invention were also tested in a FGFR2 Biochemical Caliper Assay. Compounds were prepared in 10 mM DMSO solution and serially diluted into 11 concentrations by 3-fold dilution. […] 5 uL of ATP solution (100 uM) was added to start the reaction and the plate was incubated for 90 minutes, then 70 uL of stopping buffer (0.5M EDTA) was added to terminate the reaction. Each well was analyzed using EZ reader.
T1 sequence (P21802 22-821): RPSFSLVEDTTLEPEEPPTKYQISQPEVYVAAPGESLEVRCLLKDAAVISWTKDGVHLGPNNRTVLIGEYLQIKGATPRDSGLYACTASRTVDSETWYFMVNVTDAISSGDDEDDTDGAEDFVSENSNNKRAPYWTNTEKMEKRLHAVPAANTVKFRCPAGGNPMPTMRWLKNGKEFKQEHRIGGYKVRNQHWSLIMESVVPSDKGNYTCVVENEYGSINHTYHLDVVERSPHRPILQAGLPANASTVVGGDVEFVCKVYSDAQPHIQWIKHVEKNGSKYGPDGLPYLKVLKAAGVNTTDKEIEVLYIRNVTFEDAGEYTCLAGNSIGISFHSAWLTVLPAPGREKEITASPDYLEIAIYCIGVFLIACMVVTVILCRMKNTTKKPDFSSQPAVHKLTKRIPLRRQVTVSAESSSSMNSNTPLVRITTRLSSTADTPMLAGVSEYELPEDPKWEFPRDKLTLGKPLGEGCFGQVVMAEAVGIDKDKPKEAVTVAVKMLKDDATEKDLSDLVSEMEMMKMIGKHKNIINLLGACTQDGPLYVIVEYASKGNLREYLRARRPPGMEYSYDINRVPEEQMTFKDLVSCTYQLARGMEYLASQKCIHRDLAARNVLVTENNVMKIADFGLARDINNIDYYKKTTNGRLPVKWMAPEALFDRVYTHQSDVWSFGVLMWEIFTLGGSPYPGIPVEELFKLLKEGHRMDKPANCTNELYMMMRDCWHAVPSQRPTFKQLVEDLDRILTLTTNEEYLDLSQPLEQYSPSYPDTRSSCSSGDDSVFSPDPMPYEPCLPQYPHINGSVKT

Experiment [2] deals with SNU16 cells. Description: SNU16 Cancer Cell Line Proliferation Assay. The experiment is classed as cell-based. As to conditions: SNU-16 cells. On the procedure:
Compounds of the present invention were also tested in a SNU16 Cancer Cell Line Proliferation Assay, Test compounds were prepared in a 10 mM DMSO stock solution. 45 uL of stock solution was transferred to a 384 well plate, and a 3-fold 11-point dolution was performed. SNU16 cells in a 384 well cell culture plate were seeded and incubated at 37 degrees for 24 hours. 40 nL of each concentration of compound was transferred from the compound plate to a corresponding well in the cell culture plate by Echo550 liquid handler. The plates were incubated for 96 hours, then equilibrated to room temperature for 15 minutes. 20 uL of CellTiter Glo reagent is added into each well, then the plate was shaken gently for 30 minutes at room temperature. Chemiluminescence was then read on an EnVision reader.

The target of experiment [3] is T1, FGFR2. Description: Biochemical FGFR2 Caliper assay.
The subject of experiment [4] is SNU-16. Description: Cell SNU-16 assay. The experiment is classed as cell-based.
Where [5] appears, read: Homo sapiens, SNU-16, SNU-16 cells.

In the case of `C=C(C)C(=O)Nc1ccc(-c2c(C3=CC[C@@H](C(=O)N4CCCC4)CC3)c3c(N)ncnc3n2C)cc1` (single isomer, unassigned) [Example 397], the IC50 fell in the range of 1000 to 100000 nM in experiment [1] and 250 to 1000 nM in experiment [2] (Homo sapiens).

For the compound `C=C(C)C(=O)Nc1ccc(-c2c(C3=CC[C@H](C(=O)N4CCCC4)CC3)c3c(N)ncnc3n2C)cc1` (single isomer, unassigned) [Example 398], the IC50 in experiment [1] is < 100 nM; in experiment [2] (Homo sapiens) it was ≤ 100 nM.

Consider `C=C(C)C(=O)Nc1ccc(-c2c(C3=CC[C@@H](Oc4cccc(C)n4)CC3)c3c(N)ncnc3n2C)cc1` (single isomer, unassigned) [Example 451], for which the values for the IC50 in experiment [1] and in experiment [2] (Homo sapiens) were 250 to 1000 nM and ≤ 100 nM, respectively. Turning to `C=C(C)C(=O)Nc1ccc(-c2c(C3=CC[C@H](Oc4cccc(C)n4)CC3)c3c(N)ncnc3n2C)cc1` (single isomer, unassigned) [Example 452], the IC50 lay in the range of 1000 to 100000 nM in experiment [1] and 250 to 1000 nM in experiment [2] (Homo sapiens). On to `C=C(C)C(=O)Nc1ccc(-c2c(-c3ccc(C(=O)N4CC[C@@H]5C[C@@H]54)cc3)c3c(N)ncnc3n2C)c(F)c1` (single isomer, unassigned) [Example 464], for which the IC50 in experiment [1] was < 100 nM; in experiment [2] (Homo sapiens), ≤ 100 nM. Regarding `C=C(C)C(=O)Nc1ccc(-c2c(-c3ccc(C(=O)N4CC[C@H]5C[C@H]54)cc3)c3c(N)ncnc3n2C)c(F)c1` (single isomer, unassigned) [Example 466], the figures for the IC50 in experiment [1] and in experiment [2] (Homo sapiens) were < 100 nM and ≤ 100 nM, respectively.

Turning to `C=C(C)C(=O)Nc1ccc(-c2c(-c3ccc(Oc4nccc(C)n4)c(F)c3)c3c(N)ncnc3n2[C@H]2CCOC2)cc1` (single isomer, unassigned) [Example 538], the IC50 was < 100 nM in experiment [1] and ≤ 100 nM in experiment [2] (Homo sapiens). On the same counts, the results for `C=C(C)C(=O)Nc1ccc(-c2c(-c3ccc(Oc4nccc(C)n4)c(F)c3)c3c(N)ncnc3n2[C@@H]2CCOC2)cc1` (single isomer, unassigned) [Example 539] are < 100 nM and ≤ 100 nM. The corresponding values for `C=C(C)C(=O)Nc1ccc(-c2c(C3=CC[C@H](Oc4ccn(C)n4)CC3)c3c(N)ncnc3n2C)cc1` (single isomer, unassigned) [Example 550] are 100 to 250 nM and ≤ 100 nM.

With `C[C@@H](Cl)C(=O)Nc1ccc(-c2c(-c3ccc(C(=O)N4CCCC4)cc3)c3c(N)ncnc3n2C)cc1` (single isomer, unassigned) [Example 559], the IC50 in experiment [1] and in experiment [2] (Homo sapiens) was 250 to 1000 nM each time. With `C[C@H](Cl)C(=O)Nc1ccc(-c2c(-c3ccc(C(=O)N4CCCC4)cc3)c3c(N)ncnc3n2C)cc1` (single isomer, unassigned) [Example 560], the IC50 in experiment [1] and in experiment [2] (Homo sapiens) was 100 to 250 nM in each case. `Cn1c(-c2ccc(NC(=O)C3=CCC3)cc2)c(C2=CC[C@@H](C(=O)N3CCCC3)CC2)c2c(N)ncnc21` (single isomer, unassigned) [Example 565]: the IC50 in experiment [1] is < 100 nM; in experiment [2] (Homo sapiens), ≤ 100 nM. Turning to `C=C(C)C(=O)Nc1ccc(-c2c(C3=CC[C@@H](C(=O)N4CCC[C@H]4C#N)CC3)c3c(N)ncnc3n2C)cc1` (single isomer, unassigned) [Example 582], the values for the IC50 in experiment [1] and in experiment [2] (Homo sapiens) were < 100 nM and ≤ 100 nM, respectively.

On to `Cn1c(-c2ccc(NC(=O)[C@@H]3CO3)cc2)c(-c2ccc(C(=O)N3CCCC3)cc2)c2c(N)ncnc21` (single isomer, unassigned) [Example 584], for which the IC50 in experiment [1] was in the range of 100 to 250 nM; in experiment [2] (Homo sapiens) it was 250 to 1000 nM. The corresponding values for `C=C(C)C(=O)Nc1ccc(-c2c(C3=CC[C@@H](C(=O)N4CC5CC5C4)CC3)c3c(N)ncnc3n2C)cc1` (single isomer, unassigned) [Example 592] are < 100 nM and ≤ 100 nM. The corresponding values for `C=CC(=O)N1CC[C@@H](c2c(-c3ccc(Oc4ncccn4)cc3)c3c(N)ncnc3n2C)C1` (single isomer, unassigned) [Example 697] are < 100 nM and ≤ 100 nM. Consider `C=CC(=O)N1CC[C@H](c2c(-c3ccc(Oc4ncccn4)cc3)c3c(N)ncnc3n2C)C1` (single isomer, unassigned) [Example 698], for which the IC50 in experiment [1] lay within 250 to 1000 nM; in experiment [2] (Homo sapiens), 100 to 250 nM. The corresponding values for `C=CC(=O)N1CC[C@@H](c2c(-c3ccc(Oc4ncccn4)cc3)c3c(N)ncnc3n2CC)C1` (single isomer, unassigned) [Example 708] are < 100 nM and ≤ 100 nM. As for `CC#CC(=O)Nc1ccc(-c2c(-c3ccc(Oc4cccc(C)n4)c(OC)c3)c3c(N)ncnc3n2C)cc1` [Example 18], in experiment [2] (Homo sapiens), the IC50 is ≤ 100 nM.

With `C=C(C)C(=O)Nc1ccc(-c2c(-c3ccc(Oc4nccc(C)n4)c(F)c3)c3c(N)ncnc3n2C)cc1` [Example 343], the IC50 in experiment [2] (Homo sapiens) was ≤ 100 nM.

On to `C=C(C)C(=O)Nc1ccc(-c2c(-c3ccc(Oc4nccc(C)n4)c(F)c3)c3c(N)ncnc3n2C)c(C)c1` [Example 495], for which the IC50 in experiment [2] is ≤ 100 nM.

For `C=C(C)C(=O)Nc1ccc(-c2c(-c3ccc(Oc4nccc(C)n4)c(F)c3)c3c(N)ncnc3n2C)c(C(F)F)c1` [Example 496], the IC50 in experiment [2] was ≤ 100 nM.

On to `C=C(C)C(=O)Nc1ccc(-c2c(-c3ccc(Oc4nccc(C)n4)c(F)c3)c3c(N)ncnc3n2C)c(C(F)F)c1` [Example 527], for which the IC50 in experiment [2] was ≤ 100 nM. Same read-out and setting: in the case of `C=C(C)C(=O)Nc1ccc(-c2c(-c3ccc(Oc4nccc(C)n4)c(F)c3)c3c(N)ncnc3n2C)c(C)c1` [Example 531] it was ≤ 100 nM. `C=C(C)C(=O)Nc1ccc(-c2c(-c3ccc(Oc4nccc(C)n4)c(F)c3)c3c(N)ncnc3n2C)c(CO)c1` [Example 535]: the IC50 in experiment [2] was ≤ 100 nM.

In experiment [2] (Homo sapiens), `C=CC(=O)N1CCC(c2c(-c3ccc(N4CCN(C(C)C)CC4)cc3)c3c(N)ncnc3n2C)C1` (stereo not drawn) [Example 770] yielded an IC50 of 1000 to 100000 nM. Regarding `C#Cc1cc(OC)c(-c2c(C3=CC[C@@H](C(=O)N4CCC[C@H]4C#N)CC3)c3c(C)ncnc3n2C)cn1` [Example 1467], the IC50 in experiment [3] is 250 to 1000 nM; in experiment [4] (setting [5]), ≤ 100 nM. On to `C#Cc1cc(OC)c(-c2c(C3=CC[C@H](C(=O)N4CCC[C@H]4C#N)CC3)c3c(C)ncnc3n2C)cn1` [Example 1468], for which the IC50 in experiment [3] was < 100 nM; in experiment [4] (setting [5]) it was ≤ 100 nM. As to `C#Cc1cc(OC)c(-c2c(C3=CC[C@H](C(=O)N4CCC[C@H]4C#N)CC3)c3c(C)ncnc3n2C)c(C)n1` [Example 1473], the IC50 in experiment [3] was < 100 nM; in experiment [4] (setting [5]), ≤ 100 nM. Consider `C#Cc1cc(OC)c(-c2c(C3=CC[C@@H](C(=O)N4CCC[C@H]4C#N)CC3)c3c(C)ncnc3n2C)c(C)n1` [Example 1475], for which the IC50 in experiment [3] and in experiment [4] (SNU-16 cells) was 1000 to 100000 nM in each case.

As to `C#Cc1cc(OC)c(-c2c(C3=CC[C@@H](C(=O)N4CCC[C@H]4C#N)CC3)c3c(C)ncnc3n2C)c(C)n1` [Example 1476], the IC50 lay within 1000 to 100000 nM in experiment [3] and 250 to 1000 nM in experiment [4] (SNU-16 cells). Turning to `C#Cc1cc2c(cn1)-c1c(-c3ccc(Oc4nccc(C)n4)c(F)c3)c3c(N)ncnc3n1CCC2` [Example 1477], the IC50 was < 100 nM in experiment [3] and ≤ 100 nM in experiment [4] (setting [5]). On the same counts, the results for `C#Cc1cc(CCCO)c(-c2[nH]c3ncnc(N)c3c2-c2ccc(Oc3nccc(C)n3)c(F)c2)cn1` [Example 1478] are 250 to 1000 nM and 100 to 250 nM. The corresponding values for `C#Cc1cc(C)c(-c2c(-c3ccc(Oc4nccc(C)n4)c(F)c3)c3c(CO)ncnc3n2C)cn1` [Example 1479] are 250 to 1000 nM and ≤ 100 nM. The corresponding values for `C=C(C)C(=O)Nc1ccc(-c2c(C3=CC[C@H](C(=O)N4CCCC4)CC3)c3c(N)ncnc3n2C)c(OC)c1` [Example 1480] are 1000 to 100000 nM and 250 to 1000 nM. As to `C=C(C)C(=O)Nc1ccc(-c2c(C3=CC[C@H](C(=O)N4CCC[C@H]4C)CC3)c3c(N)ncnc3n2C)c(C)c1` [Example 1481], the figures for the IC50 in experiment [3] and in experiment [4] (setting [5]) were 250 to 1000 nM and 100 to 250 nM, respectively. Turning to `C=C(C)C(=O)Nc1cc(C)c(-c2c(C3=CC[C@H](C(=O)N4CCCC4)CC3)c3c(N)ncnc3n2C)c(F)c1` [Example 1482], the results for the IC50 in experiment [3] and in experiment [4] (setting [5]) were < 100 nM and ≤ 100 nM, respectively. On the same counts, the results for `C=C(C)C(=O)Nc1cc(C)c(-c2c(C3=CC[C@@H](C(=O)N4CCCC4)CC3)c3c(N)ncnc3n2C)c(F)c1` [Example 1483] are < 100 nM and ≤ 100 nM. On the same counts, the results for `C#Cc1ncc(-c2c(-c3ccc(Oc4nccc(C)n4)cn3)c3c(C)ncnc3n2C)c(C)c1F` [Example 1488] are 250 to 1000 nM and 250 to 1000 nM. The corresponding values for `C#Cc1ncc(-c2c(-c3ccc(Oc4nccc(C)n4)cn3)c3c(N)ncnc3n2C)c(OC)c1F` [Example 1490] are 1000 to 100000 nM and 1000 to 100000 nM. On to `C#Cc1cc(OC)c(-c2c(-c3ccc(Oc4nccc(C)n4)cn3)c3c(N)ncnc3n2C)cn1` [Example 1491], for which the IC50 in experiment [3] is < 100 nM; in experiment [4] (setting [5]), ≤ 100 nM. On the same counts, the results for `C#Cc1cc(C)c(-c2c(-c3ncc(Oc4nccc(C)n4)cc3F)c3c(N)ncnc3n2C)cn1` [Example 1492] are < 100 nM and ≤ 100 nM. On the same counts, the results for `C#Cc1ccc2c(n1)OCCn1c-2c(-c2ccc(Oc3nccc(C)n3)c(F)c2)c2c(N)ncnc21` [Example 1495] are < 100 nM and ≤ 100 nM.
